Drawing on patent US20260070945A1, “MACROCYCLIC IMMUNOMODULATORS” (Bristol-Myers Squibb Company, priority 2022, published 2026), this text covers IC50 for twelve compounds.

*1 amine or outer side, *2 acyl side, *3 side chain or, on linkers, in order; H or OH if unused. Where a SMILES comes first, the peptide text is derived from it. Bridges are numbered along the chain shown (N, C = ends). [ ]: non-standard residue; d: D form. The star is where a group is joined. ξ: configuration not given here. Phe(3-CF3) = N[C@@H](Cc1cccc(C(F)(F)F)c1)C(=O)O; Phe(4-COOH) = N[C@@H](Cc1ccc(C(=O)O)cc1)C(=O)O; Bip = N[C@@H](Cc1ccc(-c2ccccc2)cc1)C(=O)O; Phe(3-Me) = Cc1cccc(C[C@H](N)C(=O)O)c1; γGlu = O=C(O)[C@H](CCC(=O)[*:2])N[*:1]; NH(CH2)12COOH = O=C(O)CCCCCCCCCCCCN*; Val(3-OH) = CC(C)(O)[C@H](N)C(=O)O; aIle = CC[C@@H](C)[C@H](N)C(=O)O; 4Pal = N[C@@H](Cc1ccncc1)C(=O)O; Cha = N[C@@H](CC1CCCCC1)C(=O)O; Thr(3ξ) = CC(O)[C@H](N)C(=O)O; CH2COCH2 = O=C(C[*:1])C[*:2]; NMeNle = CCCC[C@H](NC)C(=O)O; dOrn = NCCC[C@@H](N)C(=O)O; Carboxymethyl = O=C(O)C*; NMeA = CN[C@@H](C)C(=O)O; Orn = NCCC[C@H](N)C(=O)O; Aun = NCCCCCCCCCCC(=O)O; Dab = NCC[C@H](N)C(=O)O; AEEA = NCCOCCOCC(=O)O; Sar = CNCC(=O)O

The test deals with T1, PD-1/PD-L1 interaction (PE-labeled human PD-L1-Ig binding to Jurkat cell line over-expressing human PD-1) (Homo sapiens, UniProt Q15116).
T1 construct: expressed in transfected cells; host or cells: Jurkat
T1 sequence (Q15116 25-288): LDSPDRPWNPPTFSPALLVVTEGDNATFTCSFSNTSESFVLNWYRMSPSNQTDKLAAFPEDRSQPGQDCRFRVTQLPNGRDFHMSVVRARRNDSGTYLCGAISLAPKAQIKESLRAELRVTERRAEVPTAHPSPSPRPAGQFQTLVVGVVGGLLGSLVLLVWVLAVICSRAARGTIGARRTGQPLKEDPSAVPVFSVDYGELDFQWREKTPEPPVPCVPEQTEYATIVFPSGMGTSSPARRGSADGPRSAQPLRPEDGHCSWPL
Put plainly: Jurkat-PD-1 Cell Binding High-Content Screening Assay (CBA). To be noted: Jurkat-hPD-1 cells, PE-labeled PD-L1-Ig 20 nM final; read-out: Jurkat HPD1 PDL1 IC50. The method in brief:
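High-content imaging read-out of PE-PD-L1-Ig binding (20 nM final, 1 h) to Jurkat-hPD-1 cells, after 2 h compound exposure at 37 °C in DMEM with 10% FCS. Nuclei counterstained with Hoechst 33342 after paraformaldehyde fixation.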
Consider `CC(C)C[C@@H]1NC(=O)[C@H](Cc2c[nH]c3ccccc23)NC(=O)[C@H](CC(=O)O)NC(=O)[C@H](Cc2ccc(OCC(=O)O)cc2)NC(=O)[C@H](CCCNC(=N)N)NC(=O)CSC[C@@H](C(=O)N[C@@H](CCCN)C(=O)NCCOCCOCC(=O)NCCCCCCCCCCC(=O)O)NC(=O)[C@H](CO)NC(=O)[C@H](C(C)C)NC(=O)[C@H](CC2CCCCC2)NC(=O)[C@H](CCN)NC(=O)[C@@H](CC(C)C)NC(=O)[C@H](C)N(C)C(=O)[C@H](C(C)C)NC(=O)[C@H](Cc2ccc(-c3ccccc3)cc2)NC1=O` [Example 2139] ({CH2CO}-RY(Carboxymethyl)DWL[Bip]V[NMeA][dL][Dab][Cha]VSC[Orn][AEEA][Aun]-OH; thioether N-14), for which the IC50 (commonly the concentration that inhibits the measured activity by half) was 10.9 nM.

In the case of `CCCC[C@H]1C(=O)N[C@H](CC(C)C)C(=O)N[C@@H](CCN)C(=O)N[C@@H](CC2CCCCC2)C(=O)N[C@@H](C(C)C)C(=O)N[C@@H](C(C)O)C(=O)N[C@H](C(=O)N[C@@H](CCCN)C(=O)NCCOCCOCC(=O)NCCCCCCCCCCC(=O)O)CSCC(=O)N[C@@H](Cc2ccncc2)C(=O)N[C@@H](Cc2ccc(OCC(=O)O)cc2)C(=O)N[C@@H](CC(=O)O)C(=O)N[C@@H](Cc2c[nH]c3ccccc23)C(=O)N[C@@H](C(C)C)C(=O)N[C@@H](Cc2ccc(-c3ccccc3)cc2)C(=O)N[C@@H](CC(C)C)C(=O)N1C` (stereo partly drawn) [Example 2114] ({CH2CO}-[4Pal]Y(Carboxymethyl)DWV[Bip]L[NMeNle][dL][Dab][Cha]V[Thr(3ξ)]C[Orn][AEEA][Aun]-OH; thioether N-14), the IC50 is 102 nM.

`CC(C)C[C@@H]1NC(=O)[C@H](Cc2c[nH]c3ccccc23)NC(=O)[C@H](CC(=O)O)NC(=O)[C@H](Cc2ccncc2)NC(=O)[C@H](Cc2ccc(OCC(=O)O)cc2)NC(=O)CSC[C@@H](C(=O)N[C@@H](CCCN)C(=O)NCCCCCCCCCCC(=O)O)NC(=O)[C@H](CO)NC(=O)[C@H](C(C)C)NC(=O)[C@H](CC2CCCCC2)NC(=O)[C@H](CCN)NC(=O)[C@@H](CC(C)C)NC(=O)[C@H](C)N(C)C(=O)[C@H](C(C)C)NC(=O)[C@H](Cc2ccc(-c3ccccc3)cc2)NC1=O` [Example 1084] ({CH2CO}-Y(Carboxymethyl)[4Pal]DWL[Bip]V[NMeA][dL][Dab][Cha]VSC[Orn][Aun]-OH; thioether N-14): the IC50 stood at 20.9 nM.

Consider `CC(=O)NCCCC[C@@H]1NC(=O)[C@H](C(C)C)NC(=O)[C@H](CC2CCCCC2)NC(=O)[C@H](CCN)NC(=O)[C@@H](CC(C)C)NC(=O)[C@H](C)N(C)C(=O)[C@H](C(C)C)NC(=O)[C@H](Cc2ccc(-c3ccccc3)cc2)NC(=O)[C@H](C(C)C)NC(=O)[C@H](Cc2cccc(C)c2)NC(=O)[C@H](CC(=O)O)NC(=O)[C@H](Cc2ccc(OCC(=O)O)cc2)NC(=O)[C@H](C(C)O)NC(=O)CSC[C@@H](C(=O)N(C)CC(=O)NCCOCCOCC(=O)NCCCCCCCCCCC(=O)O)NC1=O` (stereo partly drawn) [Example 2304] ({CH2CO}-[Thr(3ξ)]Y(Carboxymethyl)D[Phe(3-Me)]V[Bip]V[NMeA][dL][Dab][Cha]VK(Ac)C[Sar][AEEA][Aun]-OH; thioether N-14), for which the IC50 amounted to 31.3 nM.

With `CC[C@@H](C)[C@@H]1NC(=O)[C@H](Cc2ccc(-c3ccccc3)cc2)NC(=O)[C@H](CC(C)C)NC(=O)[C@H](Cc2c[nH]c3ccccc23)NC(=O)[C@H](CC(=O)O)NC(=O)[C@H](Cc2ccc(C(=O)O)cc2)NC(=O)[C@H](Cc2ccc(OCC(=O)O)cc2)NC(=O)CSC[C@@H](C(=O)NCCOCCOCC(=O)N[C@H](CCCN)C(=O)NCCCCCCCCCCC(=O)O)NC(=O)[C@H](CO)NC(=O)[C@H](C(C)C)NC(=O)[C@H](CC2CCCCC2)NC(=O)[C@H](CCN)NC(=O)[C@@H](CC(C)C)NC(=O)[C@H](C)N(C)C1=O` [Example 2034] ({CH2CO}-Y(Carboxymethyl)[Phe(4-COOH)]DWL[Bip][aIle][NMeA][dL][Dab][Cha]VSC[AEEA][dOrn][Aun]-OH; thioether N-14), the IC50 was 16.9 nM.

On to `CC(C)C[C@@H]1NC(=O)[C@H](Cc2c[nH]c3ccccc23)NC(=O)[C@H](CC(=O)O)NC(=O)[C@H](Cc2ccncc2)NC(=O)[C@H](Cc2ccc(OCC(=O)O)cc2)NC(=O)CSC[C@@H](C(=O)N[C@@H](CCN)C(=O)NCCCCCCCCCCC(=O)O)NC(=O)[C@H](CCC(=O)O)NC(=O)[C@H](C(C)C)NC(=O)[C@H](CC2CCCCC2)NC(=O)[C@H](CCN)NC(=O)[C@@H](CC(C)C)NC(=O)[C@H](C)N(C)C(=O)[C@H](C(C)C)NC(=O)[C@H](Cc2ccc(-c3ccccc3)cc2)NC1=O` [Example 1330] ({CH2CO}-Y(Carboxymethyl)[4Pal]DWL[Bip]V[NMeA][dL][Dab][Cha]VEC[Dab][Aun]-OH; thioether N-14), for which the IC50 stood at 14.1 nM.

As to `CC(C)C[C@H]1NC(=O)[C@H](C)N(C)C(=O)[C@H](CCC(N)=O)NC(=O)[C@H](Cc2ccc(-c3ccccc3)cc2)NC(=O)[C@H](Cc2ccc(C(=O)O)cc2)NC(=O)[C@H](Cc2cccc(C(F)(F)F)c2)NC(=O)[C@H](CC(=O)O)NC(=O)[C@H](Cc2ccc(OCC(=O)O)cc2)NC(=O)[C@H](Cc2ccc(C(=O)O)cc2)NC(=O)CSC[C@@H](C(=O)N[C@@H](CCN)C(=O)NCCOCCOCC(=O)N[C@@H](CCC(=O)NCCOCCOCC(=O)NCCCCCCCCCCCCC(=O)O)C(=O)O)NC(=O)[C@H](CO)NC(=O)[C@H](C(C)(C)O)NC(=O)[C@H](CC2CCCCC2)NC(=O)[C@H](CCN)NC1=O` [Example 1184] ({CH2CO}-[Phe(4-COOH)]Y(Carboxymethyl)D[Phe(3-CF3)][Phe(4-COOH)][Bip]Q[NMeA][dL][Dab][Cha][Val(3-OH)]SC[Dab][AEEA][γGlu][AEEA]-{NH(CH2)12COOH}; thioether N-14), the IC50 is 44 nM.

With `CC(=O)COc1ccc(C[C@@H]2NC(=O)[C@H](CCCNC(=N)N)NC(=O)CSC[C@@H](C(=O)N[C@@H](CCN)C(=O)NCCCCCCCCCCC(=O)O)NC(=O)[C@H](C(C)O)NC(=O)[C@H](C(C)C)NC(=O)[C@H](CC3CCCCC3)NC(=O)[C@H](CCN)NC(=O)[C@@H](CC(C)C)NC(=O)[C@H](C)N(C)C(=O)[C@H](Cc3ccc(OCC(=O)O)cc3)NC(=O)[C@H](Cc3ccc(-c4ccccc4)cc3)NC(=O)[C@H](CC(C)C)NC(=O)[C@H](Cc3cccc(C)c3)NC(=O)[C@H](CC(=O)O)NC2=O)cc1` (stereo partly drawn) [Example 2253] ({CH2CO}-RY(CH2COCH2)D[Phe(3-Me)]L[Bip]Y(Carboxymethyl)[NMeA][dL][Dab][Cha]V[Thr(3ξ)]C[Dab][Aun]-OH; thioether N-14), the IC50 was 11.9 nM.

Regarding `CC(C)C[C@H]1NC(=O)[C@H](C)N(C)C(=O)[C@H](Cc2ccc(OCC(=O)O)cc2)NC(=O)[C@H](Cc2ccc(-c3ccccc3)cc2)NC(=O)[C@H](Cc2ccc(OCC(=O)O)cc2)NC(=O)[C@H](Cc2c[nH]c3ccccc23)NC(=O)[C@H](CC(=O)O)NC(=O)[C@H](Cc2ccc(OCC(=O)O)cc2)NC(=O)[C@H]([C@@H](C)O)NC(=O)CSC[C@@H](C(=O)N[C@@H](CCCN)C(=O)NCCOCCOCC(=O)NCCCCCCCCCCC(=O)O)NC(=O)[C@H](CO)NC(=O)[C@H](C(C)C)NC(=O)[C@H](CC2CCCCC2)NC(=O)[C@H](CC(N)=O)NC1=O` [Example 1389] ({CH2CO}-TY(Carboxymethyl)DWY(Carboxymethyl)[Bip]Y(Carboxymethyl)[NMeA][dL]N[Cha]VSC[Orn][AEEA][Aun]-OH; thioether N-14), the IC50 worked out at 227 nM.

Turning to `CC(C)C[C@@H]1NC(=O)[C@H](Cc2c[nH]c3ccccc23)NC(=O)[C@H](CC(=O)O)NC(=O)[C@H](Cc2ccc(C(=O)O)cc2)NC(=O)[C@H](Cc2ccc(OCC(=O)O)cc2)NC(=O)CSC[C@@H](C(=O)N[C@@H](CCCN)C(=O)NCCOCCOCC(=O)NCCCCCCCCCCC(=O)O)NC(=O)[C@H](CCCN)NC(=O)[C@H](C(C)C)NC(=O)[C@H](CC2CCCCC2)NC(=O)[C@H](CC(N)=O)NC(=O)[C@@H](CC(C)C)NC(=O)[C@H](C)N(C)C(=O)[C@H](C(C)C)NC(=O)[C@H](Cc2ccc(-c3ccccc3)cc2)NC1=O` [Example 2144] ({CH2CO}-Y(Carboxymethyl)[Phe(4-COOH)]DWL[Bip]V[NMeA][dL]N[Cha]V[Orn]C[Orn][AEEA][Aun]-OH; thioether N-14), the IC50 stood at 19.3 nM.

With `CC(C)C[C@@H]1NC(=O)[C@H](Cc2c[nH]c3ccccc23)NC(=O)[C@H](CC(=O)O)NC(=O)[C@H](Cc2ccc(C(=O)O)cc2)NC(=O)[C@H](Cc2ccc(OCC(=O)O)cc2)NC(=O)CSC[C@@H](C(=O)NCC(=O)NCCOCCOCC(=O)N[C@@H](CCCN)C(=O)NCCCCCCCCCCC(=O)O)NC(=O)[C@H](CCCN)NC(=O)[C@H](C(C)C)NC(=O)[C@H](CC2CCCCC2)NC(=O)[C@H](CCN)NC(=O)[C@@H](CC(C)C)NC(=O)[C@H](C)N(C)C(=O)[C@H](C(C)C)NC(=O)[C@H](Cc2ccc(-c3ccccc3)cc2)NC1=O` [Example 2162] ({CH2CO}-Y(Carboxymethyl)[Phe(4-COOH)]DWL[Bip]V[NMeA][dL][Dab][Cha]V[Orn]CG[AEEA][Orn][Aun]-OH; thioether N-14), the IC50 worked out at 7.8 nM.

Take `CC(C)C[C@@H]1NC(=O)[C@H](Cc2c[nH]c3ccccc23)NC(=O)[C@H](CC(=O)O)NC(=O)[C@H](Cc2ccc(C(=O)O)cc2)NC(=O)[C@H](Cc2ccc(OCC(=O)O)cc2)NC(=O)CSC[C@@H](C(=O)N[C@@H](CCN)C(=O)NCCOCCOCC(=O)NCCCCCCCCCCC(=O)O)NC(=O)[C@H](CCC(N)=O)NC(=O)[C@H](C(C)C)NC(=O)[C@H](CC2CCCCC2)NC(=O)[C@H](CCN)NC(=O)[C@@H](CC(C)C)NC(=O)[C@H](C)N(C)C(=O)[C@H](C(C)C)NC(=O)[C@H](Cc2ccc(-c3ccccc3)cc2)NC1=O` [Example 1126] ({CH2CO}-Y(Carboxymethyl)[Phe(4-COOH)]DWL[Bip]V[NMeA][dL][Dab][Cha]VQC[Dab][AEEA][Aun]-OH; thioether N-14): the IC50 was found to be 3.4 nM.
